Holding throughout (format): cell-based, human
One data set deals with SAILOR. Description: SAILOR knockdown with shRNA in BT549 cell lines. The source says: (§1) The effect of SAILOR on the growth rate of BT549 cells was studied. SAILOR expression was reduced by ˜80% in BT549 cell lines with a short-hairpin RNA (shRNA), 5′-[…]-3′ (SEQ ID NO:14), which targets SAILOR exon 4 at sequence […] (SEQ ID NO:15) (FIG. 5).
For the next data set, the system named is BT549 cells. Description: Growth rate of BT549 cells after SAILOR knockdown.
Text: as §1

A further data set relates to SATB1. Description: SATB1 transcription or protein level after SAILOR knockdown. As to conditions: BT549 cells.

Data on one substance can be found in patent US10364470B2, “Long non-coding RNA expressed in aggressive cancer” (The Regents of the University of California, priority 2014, dated 2019).

For “5′-GGTGGAAGAGTAAACTGTTCCCGAAGGAACAGTTTACTCTTCCACC-3′ (expressed or natural sequence) [shRNA]”, the “SAILOR expression reduced (knock down)” value with SAILOR is roughly 80%. The “growth rate of SAILOR knockdown cells” value with BT549 cells is “slowed growth rate”. Further, in the data set with SATB1, the “effect of reduced SAILOR levels on SATB1 transcription or protein level” value is recorded as “did not affect”.
